Literature values in patent US20180140592A1, “5-CHLORO-4-HYDROXY-1-METHYL-2-OXO-N-PHENYL-1,2-DIHYDROQUINOLINE-3-CARBOXAMIDE, SALTS AND USES THEREOF” (Teva Pharmaceutical Industries, Ltd., priority 2010, published 2018).

How the values were obtained:
[1] = tested on: experimental inflammatory/autoimmune animal models; details: EAE, DSS induced colitis, NOD mice, EAN, SLE and others
[2] = tested on: relapsing MS; details: Polman et al. 2005
[3] = tested on: acute experimental autoimmune encephalomyelitis (aEAE) model; details: U.S. Pat. No. 6,077,851

CCN(C(=O)c1c(O)c2c(Cl)cccc2n(C)c1=O)c1ccccc1 [Laquinimod, N-ethyl-N-phenyl-1,2-dihydro-4-hydroxy-5-chloro-1-methyl-2-oxoquinoline-3-carboxamide]
therapeutic effect in animal models [1]: demonstrated therapeutic effect
development of active MRI lesions [2]: reduce development of active MRI lesions
efficacy in the aEAE model [3]: effective
